The values below come from PubChem BioAssay (NCI).

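Step 1: Grow cells in 96-well plates. Step 2: Expose to compound for 48 hours at 5 concentrations. Step 3: Interpolate endpoints linearly; if unreached, use highest concentration. GI50 = concentration required for 50% inhibition of growth. TGI: concentration producing complete growth inhibition.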

Among the test systems are 786-0 renal; NCI-H522 lung; NCI-H226 lung; NCI-H460 lung; CAKI-1 renal; SNB-75 CNS; UO-31 renal; T-47D breast; KM12 colon; OVCAR-3 ovarian.
Common to all, as to assay: NCI tumour cell line growth inhibition, 48 h

As for `Cc1c(C(N)=O)sc2nc(C)n(/N=c3\scc(-c4ccccc4)n3Cc3ccccc3)c(=O)c12`, the GI50 is 3.82 µM with 786-0 renal; 1730 nM in the assay on NCI-H522 lung; 3720 nM with NCI-H226 lung; 2.65 µM with NCI-H460 lung; 3350 nM in the assay with CAKI-1 renal; 2800 nM with SNB-75 CNS. For the same compound, the GI50 is 1660 nM in the assay on UO-31 renal, 3.25 µM in the assay with T-47D breast, 3.37 µM in the assay with KM12 colon and 2280 nM in the assay with OVCAR-3 ovarian. Besides, the TGI is above 100 µM in the assay on 786-0 renal; 7.23 µM in the assay with NCI-H522 lung; 67.9 µM with NCI-H226 lung; 7.34 µM with NCI-H460 lung; above 100 µM in the assay on CAKI-1 renal; above 100 µM in the assay on SNB-75 CNS. Besides, the TGI in the assay on UO-31 renal is 7 µM; in the assay on T-47D breast, above 100 µM; with KM12 colon, above 100 µM; with OVCAR-3 ovarian, 8.58 µM.
For the compound `COc1cc(C(=O)O[C@H](C(=O)NCCCCNC(=O)[C@@H](OC(=O)c2cc(OC)cc3c(C)cccc23)[C@]2(C)CO2)[C@]2(C)CO2)c2cccc(C)c2c1`, the TGI with 786-0 renal stood at 1.25 µM; in the assay with NCI-H522 lung, 10.9 µM; in the assay on NCI-H226 lung it was 2.07 µM; with NCI-H460 lung it was 0.228 µM; with CAKI-1 renal it was 0.0986 µM; with SNB-75 CNS, 0.373 µM. For the same compound, the TGI with UO-31 renal is above 100 µM; in the assay on T-47D breast it was 1.74 µM; in the assay on KM12 colon it was 0.802 µM; in the assay on OVCAR-3 ovarian, 0.73 µM. In addition, the GI50 in the assay on NCI-H522 lung is 20.7 nM; with NCI-H226 lung, 620 nM; in the assay on NCI-H460 lung, below 0.0354 µM; in the assay on CAKI-1 renal, 12.2 nM; in the assay with SNB-75 CNS, 114 nM; in the assay on UO-31 renal, 466 nM. For the same compound, the GI50 in the assay on T-47D breast is 0.253 µM; in the assay with KM12 colon, 0.139 µM; with OVCAR-3 ovarian, 207 nM.
Consider `N#Cc1c(N)nc(N2CCOCC2)c(C#N)c1-c1c(Cl)cccc1Cl`, for which the GI50 with 786-0 renal is 12.9 µM; in the assay with NCI-H522 lung, 2360 nM; in the assay on NCI-H226 lung, 15200 nM; with NCI-H460 lung, 6.39 µM; in the assay on CAKI-1 renal it was 2240 nM; in the assay with SNB-75 CNS, 1750 nM. In addition, the GI50 with UO-31 renal was 7790 nM; with T-47D breast it was 3.43 µM; in the assay on KM12 colon it was 6.42 µM; in the assay with OVCAR-3 ovarian, 2400 nM. Further, the TGI with 786-0 renal is 36.7 µM; with NCI-H522 lung, 8.38 µM; with NCI-H226 lung it was 73.8 µM; in the assay on NCI-H460 lung, 44.6 µM; in the assay with CAKI-1 renal it was 12.2 µM; in the assay on SNB-75 CNS, 9.66 µM. Besides, the TGI in the assay on UO-31 renal amounted to 44.1 µM; in the assay on T-47D breast, 10.1 µM; in the assay on KM12 colon it was 77.8 µM; in the assay on OVCAR-3 ovarian, 6.37 µM.
As for `O=C1NC(=NCCc2ccc(Br)cc2)S/C1=C\c1ccc2ncccc2c1`, the GI50 was above 25 µM in the assay on 786-0 renal; 12900 nM in the assay with NCI-H522 lung; above 25000 nM in the assay on NCI-H226 lung; above 25 µM with NCI-H460 lung; above 20300 nM with CAKI-1 renal; above 25000 nM in the assay with SNB-75 CNS. Besides, the GI50 is above 25000 nM in the assay on UO-31 renal, above 17.1 µM in the assay on T-47D breast, 24.6 µM with KM12 colon and above 25000 nM in the assay with OVCAR-3 ovarian. The TGI in the assay with 786-0 renal, in the assay with NCI-H522 lung, in the assay on NCI-H226 lung, in the assay with NCI-H460 lung, with CAKI-1 renal and in the assay with SNB-75 CNS was above 25 µM each time. Also, the TGI in the assay with UO-31 renal, in the assay on T-47D breast, in the assay with KM12 colon and in the assay with OVCAR-3 ovarian was above 25 µM in each case.
For the compound `CC(C)(C)[Si](C)(C)OC1[C@@H](COC(=O)NC(=O)CCl)O[C@@H](n2cnc3c(N)ncnc32)[C@H]1O[Si](C)(C)C(C)(C)C` (stereo partly drawn), the GI50 in the assay on 786-0 renal was 1.05 µM; in the assay on NCI-H522 lung, 122 nM; in the assay with NCI-H226 lung, 1130 nM; in the assay on NCI-H460 lung it was 7.22 µM; with CAKI-1 renal it was 4250 nM; in the assay with SNB-75 CNS it was 3640 nM. Besides, the GI50 in the assay on UO-31 renal was 2300 nM; in the assay with T-47D breast, 4.94 µM; in the assay on KM12 colon, 2.55 µM; with OVCAR-3 ovarian it was 2660 nM. The TGI with 786-0 renal was 2.33 µM; in the assay with NCI-H522 lung it was 0.312 µM; with NCI-H226 lung, 2.3 µM; with NCI-H460 lung, 14.9 µM; with CAKI-1 renal, 11.2 µM; with SNB-75 CNS, 10.8 µM. The TGI is 5.88 µM in the assay with UO-31 renal, 11.1 µM in the assay on T-47D breast, 6.48 µM in the assay with KM12 colon and 8.32 µM in the assay with OVCAR-3 ovarian.
As for `COc1ccc2c(c1)C(=O)c1c-2n(CCCN(C)C)c(=O)c2cc([N+](=O)[O-])ccc12`, the GI50 in the assay with 786-0 renal was below 0.01 µM; in the assay on NCI-H522 lung, below 10 nM; with NCI-H226 lung, below 22.7 nM; in the assay with NCI-H460 lung it was below 0.01 µM; in the assay with CAKI-1 renal, below 10 nM; in the assay on SNB-75 CNS it was below 10 nM. The GI50 was below 10 nM in the assay with UO-31 renal, below 0.01 µM in the assay on T-47D breast, 0.025 µM in the assay with KM12 colon and 19.1 nM in the assay with OVCAR-3 ovarian. The TGI in the assay with 786-0 renal was below 0.01 µM; with NCI-H522 lung, 0.898 µM; in the assay with NCI-H226 lung it was 1.53 µM; with NCI-H460 lung, 0.234 µM; with SNB-75 CNS it was 2.74 µM; in the assay on UO-31 renal, 0.0294 µM. The TGI in the assay on T-47D breast came to 21.6 µM; with KM12 colon, 0.556 µM; in the assay with OVCAR-3 ovarian it was 0.748 µM.
On to `C=C(C)C(=O)Nc1ccc(-c2c(-c3ccc(Oc4nccc(C)n4)c(F)c3)c3c(N)ncnc3n2C)cc1`, for which the GI50 with 786-0 renal is 2.43 µM; with NCI-H522 lung, 3570 nM; in the assay with NCI-H226 lung, 812 nM; with NCI-H460 lung, 3.05 µM; in the assay with CAKI-1 renal, 1920 nM; in the assay on SNB-75 CNS, 1180 nM. Moreover, the GI50 in the assay on UO-31 renal is 1180 nM; in the assay with T-47D breast it was 2.97 µM; with KM12 colon, 3.87 µM; in the assay with OVCAR-3 ovarian, 4770 nM. The TGI in the assay with 786-0 renal was 30.6 µM; with NCI-H522 lung, 16.1 µM; in the assay on NCI-H226 lung it was 7.46 µM; with NCI-H460 lung it was 13.3 µM; in the assay on CAKI-1 renal, 8.23 µM; with SNB-75 CNS it was 7.32 µM. Also, the TGI was 2.98 µM in the assay on UO-31 renal, 35.5 µM with T-47D breast, 17 µM in the assay with KM12 colon and 18.4 µM in the assay with OVCAR-3 ovarian.
